Measured values reported in patent US20040086901A1, “Database for analyzing gene function and method of analyzing gene function by dspa” (priority 2000, published 2004).
Non-standard residues stand in square brackets, D forms with d. Residues, ends and D or L forms follow the SMILES beside them. Nle = CCCC[C@H](N)C(=O)O

Columns and labels:
Format in all cases: cell-based, mouse
[1] = system: NIH3T3 cells overexpressing C/EBPa; test: MTT cell viability, C/EBPa overexpressing cells vs parental line; details: C/EBPa high-expressing cells / parental cell line, 3 to 4 days
Protocol: (§1) With regard to the function-known genes, the genes shown in the left column of Table 2 were used. With regard to the drugs, those shown in Table 1 were dissolved in DMSO to an extent of 100-fold of the maximum concentration for the search of the drugs and used. With regard to the cells, incubated NIH3T3 or ras-NIH3T3 cells were used.
(§2) Full-length cDNA of each function-known genes was incorporated into an expression vector (pRc-CMV, etc.) and transfected into NIH3T3 cells by a common method. Transformed cells were isolated using the resistance to G-418 as an index and the expression of the transfected gene in each cell was investigated by Western blotting method to select a highly expressing line.
(§3) Cell viabilities were measured according to the following procedures.
(§4) 1) From the 2nd to the 11th rows of a 96-well plate were filled with DMEM (50 μl). The 12th row was filled with 100 μl of DMEM.
(§5) 2) The 1st row was filled with 98 μl of DMEM.
(§6) 3) Drugs (2 μl each) were added into the 1st row.
(§7) 4) Continuous double-dilution was conducted from the 1st to the 9th rows. Fifty μl were taken out from the 9th row and discarded. The plate was preserved in a CO2 incubator.
(§8) 5) Cells (each high-expressing cells and the parental cell line) were detached from the medium using a trypsin solution, suspended in 10% CS-DMEM and transferred to a test tube and cell numbers (cell/ml) were counted.
(§9) 6) The cells were diluted to a concentration of 1×10^5 cells/ml, and 50 μl of the cell suspension were added to the 1st to the 11th rows of the plate followed by gently stirring.
(§10) 7) The plate was transferred to the CO2 incubator and incubated for 3 to 4 days.
(§11) 8) MTT (5 mg/ml in PBS) (10 μl) was added to the 1st to the 12th rows of the plate and incubated in the CO2 incubator at 37° C. for 4 hours.
(§12) 9) A reaction stop solution (0.04N HCl in isopropanol) (150 μl) was added followed by mixing well and being allowed to stand at room temperature for about 2 hours.
(§13) 10) Coloration of formazan which was a metabolite of the MTT dye was measured using a microplate reader. The measurement wavelength was 574 nm and the reference wavelength was 655 nm. The 10th and the 11th rows of the plate were 100% controls and the 12th row was a 0% control.
(§14) As an index for the sensitivity of highly gene-expressing cells and the parental cell line to various drugs, each of the IC40 values thereof was specified and ratios of the IC40 values were calculated. […] After that, logarithmic values of ratios of IC40 values were calculated from each gene.

[2] = system: NIH3T3 cells overexpressing RhoA-DN; test: MTT cell viability, RhoA-DN overexpressing cells vs parental line; details: RhoA-DN high-expressing cells / parental cell line, 3 to 4 days
Protocol: as §1, §2, §3, §4, §5, §6, §7, §8, §9, §10, §11, §12, §13, §14

[3] = system: NIH3T3 cells overexpressing HSP9O; test: MTT cell viability, HSP9O overexpressing cells vs parental line; details: HSP9O high-expressing cells / parental cell line, 3 to 4 days
Protocol: as §1, §2, §3, §4, §5, §6, §7, §8, §9, §10, §11, §12, §13
(§15) As an index for the sensitivity of highly gene-expressing cells and the parental cell line to various drugs, each of the IC40 values thereof was specified and ratios of the IC40 values were calculated. FIG. 2 and FIG. 3 are the examples where ratios of IC40 values were calculated from a curve showing the dependency on the concentration of the chemical versus the viability. After that, logarithmic values of ratios of IC40 values were calculated from each gene.

[4] = system: NIH3T3 cells overexpressing CaMKIIa-Active; test: MTT cell viability, CaMKIIa-Active overexpressing cells vs parental line; details: CaMKIIa-Active high-expressing cells / parental cell line, 3 to 4 days
Protocol: as §1, §2, §3, §4, §5, §6, §7, §8, §9, §10, §11, §12, §13, §15

[5] = system: NIH3T3 cells overexpressing ERK-DN; test: MTT cell viability, ERK-DN overexpressing cells vs parental line; details: ERK-DN high-expressing cells / parental cell line, 3 to 4 days
Protocol: as §1, §2, §3, §4, §5, §6, §7, §8, §9, §10, §11, §12, §13, §14

[6] = system: NIH3T3 cells overexpressing C/EBPb; test: MTT cell viability, C/EBPb overexpressing cells vs parental line; details: C/EBPb high-expressing cells / parental cell line, 3 to 4 days
Protocol: as §1, §2, §3, §4, §5, §6, §7, §8, §9, §10, §11, §12, §13, §14

[7] = system: NIH3T3 cells overexpressing Gluco-corticoid-R; test: MTT cell viability, Gluco-corticoid-R overexpressing cells vs parental line; details: Gluco-corticoid-R high-expressing cells / parental cell line, 3 to 4 days
Protocol: as §1, §2, §3, §4, §5, §6, §7, §8, §9, §10, §11, §12, §13, §14

Compound | logarithmic value of ratio of IC40 values [1] | logarithmic value of ratio of IC40 values [2] | logarithmic value of ratio of IC40 values [3] | logarithmic value of ratio of IC40 values [4] | logarithmic value of ratio of IC40 values [5] | logarithmic value of ratio of IC40 values [6] | logarithmic value of ratio of IC40 values [7]
ICE inhibitor-III [ICEin-3] | −0.46 | 0.00 | 0.22 | 0.22 | 0.00 | 0.35 | 0.00
COC(=O)[C@@]1(O)C[C@H]2O[C@]1(C)n1c3ccccc3c3c4c(c5c6ccccc6n2c5c31)C(=O)NC4 [K252a] | −0.48 | 0.28 | 0.56 | 0.10 | 0.05 | 0.25 | 0.13
Nc1nc2nc[nH]c2c(=S)[nH]1 [6-TG, 6-thioguanine] | 0.00 | 0.41 | 0.57 | 0.62 |  |  | 0.09
C=C[C@@]1(C)CC(=O)[C@]2(O)[C@@]3(C)[C@@H](O)CCC(C)(C)[C@@H]3[C@H](O)[C@H](OC(C)=O)[C@@]2(C)O1 [Forskolin, forskolin] | 0.00 | −0.36 | 0.94 | 0.43 | 0.08 | 0.93 | 0.33
C=CC1=C(C)c2cc3[n-]c(cc4nc(cc5[n-]c(cc1n2)c(C)c5CCC(=O)O)C(CCC(=O)O)=C4C)c(C)c3C=C.[Cl-].[Cl-].[Sn+4] [SnPP] | 0.00 | 0.08 |  | 0.30 | 0.00 | −0.50 | 0.00
CC(=O)OCOC(=O)CN(CC(=O)OCOC(C)=O)c1ccccc1OCCOc1ccccc1N(CC(=O)OCOC(C)=O)CC(=O)OCOC(C)=O [BAPTA-AM] | −0.62 | 0.09 | 0.60 | 0.18 | 0.12 | 0.81 | 0.10
CN[C@@H]1C[C@H]2O[C@@](C)([C@@H]1OC)n1c3ccccc3c3c4c(c5c6ccccc6n2c5c31)C(=O)NC4 [Staurosporine] |  | 0.14 | 0.22 | −0.04 |  | −0.23 | −0.28
CO[C@H]1[C@@H](OC)C[C@H](C)[C@@H](OC)C2=CC(=O)C=C(NC(=O)/C(C)=C/C=C\[C@H](OC)[C@@H](OC(N)=O)/C(C)=C/[C@@H]1C)C2=O [HMA, herbimycin A] | 0.00 | −0.10 | 0.40 | 0.51 | 0.00 | 0.45 | −0.11
CC(C)(C)C(=O)Oc1ccc(S(=O)(=O)Nc2ccccc2C(=O)NCC(=O)O)cc1 [compound 5046] |  |  | 0.52 | 0.35 |  | 0.17 | 
C=C1[C@@H](O)[C@@H]2O[C@]3(CC[C@H](/C=C/[C@@H](C)[C@@H]4CC(C)=C[C@@]5(O[C@H](C[C@@](C)(O)C(=O)O)CC[C@H]5O)O4)O3)CC[C@H]2O[C@@H]1[C@@H](O)C[C@H](C)[C@H]1O[C@@]2(CCCCO2)CC[C@H]1C [OA, okadaic acid] | 0.12 | 0.00 | 0.07 | 0.14 | 0.00 | 0.21 | 0.06
sodium vanadate | −0.02 | −0.12 | 0.02 | 0.01 | 0.00 |  | 0.03
CCCC[C@@H](C=O)NC(=O)[C@H](CC(C)C)NC(=O)[C@H](CC(C)C)NC(C)=O [ALLN] (Ac-Leu-Leu-[Nle]-aldehyde) | 0.00 | 0.00 | 0.16 | 0.20 | 0.00 | 0.31 | 0.12
C[C@@H]1O[C@@H](O[C@H]2C[C@@H](O)[C@]3(CO)[C@H]4[C@H](O)C[C@]5(C)[C@@H](C6=CC(=O)OC6)CC[C@]5(O)[C@@H]4CC[C@]3(O)C2)[C@H](O)[C@H](O)[C@H]1O [Ouabain, ouabain] | 0.00 | 0.45 | 0.92 | 0.60 | 0.48 | 0.00 | 0.04
C[C@@H]1C[C@@H]([C@H](O)CC2CC(=O)NC(=O)C2)C(=O)[C@@H](C)C1 [CHX, cycloheximide] | 0.00 | 0.22 | 0.07 | −0.09 | 0.08 | 0.37 | 
O=CN/C=C/c1cc(O)ccc1O [Erbstatin, erbstatin] | 0.11 | −0.02 | 0.26 | 0.21 | 0.13 | 0.48 | 0.06
C/C=C(/C)C(=O)O[C@H]1C(C)=C2[C@H]([C@@H]1OC(=O)CCCCCCC)[C@@](C)(OC(C)=O)C[C@H](OC(=O)CCC)[C@@]1(O)[C@H]2OC(=O)[C@@]1(C)O [Thapsigargin, thapsigargin] | −0.09 | 0.06 | 0.09 | 0.03 | −0.15 | 0.29 | 0.20
C=C[C@]1(C)CC[C@@H](C(=C)C)C[C@H]1C(=C)C [b-elemene, β-elemene] | 0.00 |  | 0.05 |  | 0.33 | 0.50 | 0.00
CN(C)CCCn1cc(C2=C(c3c[nH]c4ccccc34)C(=O)NC2=O)c2ccccc21 [GF109203X] | 0.00 |  |  |  | 0.48 |  | 0.27
